Experimental data reported in ChEMBL document CHEMBL5390201, “The Natural Alkaloid (-)-N-Hydroxyapiosporamide Suppresses Colorectal Tumor Progression as an NF-κB Pathway Inhibitor by Targeting the TAK1-TRAF6 Complex” (J Nat Prod, 2023).
Calls of active or inactive are those of the source. The rule behind the calls is not given here.

Experiments:
HCT-116 [1] = test: Induction of apoptosis in human HCT-116 cells assessed as viable cells at 5 uM incubated for 24 hrs by Annexin V-FITC/PI staining based flow cytometric analysis (reference value: 74.3 %); format: functional; conditions: read-out: Activity
HT-29 [2] = test: Induction of apoptosis in human HT-29 cells assessed as increase in cleavage of PARP measured for 24 hrs by Western blot analysis; format: functional, cell-based; conditions: dose 0-10 µM
HT-29 [3] = test: Induction of apoptosis in human HT-29 cells assessed as inhibition of PARP protein expression measured for 24 hrs by Western blot analysis; format: functional, cell-based; conditions: dose 0-10 µM
HCT-116 [4] = test: Cytotoxicity against human HCT-116 cells assessed as decrease in cell viability incubated for 48 hrs by SRB assay; format: functional, cell-based; conditions: HCT-116, 48 h
HCT-116 [5] = test: Induction of apoptosis in human HCT-116 cells assessed as late apoptotic cells at 0.25 uM incubated for 24 hrs by Annexin V-FITC/PI staining based flow cytometric analysis (reference value: 2.9 %); format: functional
[6] = Toxicity in athymic nude BALB/c mouse xenografted with human HT-29 cells assessed as pathological changes in kidney at 5 to 15 mg/kg, ip administered every other day and measured after 14 days by hematoxylin and eosin staining-based microscopic analysis; format: organism-based; conditions: in vivo, 336 h, dose 5-15 mg/kg, time 14 day
Mus musculus [7] = test: In vivo inhibition of NFkappaB activation in athymic BALB/c mouse xenografted with human HT-29 cells assessed as reduction in IL-8 gene expression in tumor at 5 to 15 mg/kg, ip administered every other day and measured after 14 days by qRT-PCR analysis; format: functional, organism-based; conditions: dose 5-15 mg/kg, time 14.0 day
HT-29 [8] = test: Induction of cell cycle arrest in human HT-29 cells assessed as decrease in CDK2 protein expression upto 10 uM incubated for 24 hrs by Western blot analysis; format: functional, cell-based
Mus musculus [9] = test: Anti-inflammatory activity in AOM/DSS-induced BALB/c mouse model inflammatory bowel disease assessed as reduction in tumor length at 5 to 10 mg/kg, ip pretreated with AOM for 7 days further replaced with DSS for 7 days and repeated for 2 times followed by every 2 days compound treatment for […] starting from day 50 and measured once a week; format: functional, organism-based; conditions: dose 5-10 mg/kg, time 21.0 day
HCT-116 [10] = test: Induction of autophagic flux in human HCT-116 cells assessed as increase in LC3 protein expression preincubated with chloroquine for 1 hr followed by compound addition and measured after 24 hrs by Western blot analysis; format: functional, cell-based
HT-29 [11] = test: Induction of cell cycle arrest in human HT-29 cells assessed as accumulation of cells at G0/G1 phase at 10 uM by RNase/PI staining based flow cytometry analysis (reference value: 50.73 %); format: functional
HT-29 [12] = test: Induction of autophagy in human HT-29 cells assessed as increase in LC3I to LC3II conversion at 1 to 10 uM incubated for 24 hrs by Western blotting analysis; format: functional, cell-based; conditions: dose 1-10 µM
HCT-116 [13] = test: Induction of apoptosis in human HCT-116 cells assessed as late apoptotic cells at 1 uM incubated for 24 hrs by Annexin V-FITC/PI staining based flow cytometric analysis (reference value: 2.9 %); format: functional
HCT-116 [14] = test: Inhibition of colony formation in human HCT-116 cells at 0.25 to 10 uM incubated for 24 hrs and measured after 14 days by crystal violet staining based assay; format: functional, cell-based; conditions: dose 0.25-10 µM, time 14.0 day
HCT-116 [15] = test: Induction of cell cycle arrest in human HCT-116 cells assessed as accumulation of cells at G2/M phase at 5 uM by RNase/PI staining based flow cytometry analysis (reference value: 23.15 %); format: functional
[16] = Toxicity in athymic nude BALB/c mouse xenografted with human HT-29 cells assessed as pathological changes in spleen at 5 to 15 mg/kg, ip administered every other day and measured after 14 days by hematoxylin and eosin staining-based microscopic analysis; format: organism-based; conditions: in vivo, 336 h, dose 5-15 mg/kg, time 14 day
HCT-116 [17] = test: Induction of cell cycle arrest in human HCT-116 cells assessed as decrease in P-cdc2 protein expression upto 10 uM incubated for 24 hrs by Western blot analysis; format: functional, cell-based
HT-29 [18] = test: Induction of apoptosis in human HT-29 cells assessed as viable cells at 0.5 uM incubated for 24 hrs by Annexin V-FITC/PI staining based flow cytometric analysis (reference value: 93 %); format: functional; conditions: read-out: Activity
[19] = Toxicity in athymic nude BALB/c mouse xenografted with human HT-29 cells assessed as pathological changes in heart at 5 to 15 mg/kg, ip administered every other day and measured after 14 days by hematoxylin and eosin staining-based microscopic analysis; format: organism-based; conditions: in vivo, 336 h, dose 5-15 mg/kg, time 14 day
HT-29 [20] = test: Induction of cell cycle arrest in human HT-29 cells assessed as accumulation of cells at G2/M phase at 1 uM by RNase/PI staining based flow cytometry analysis (reference value: 9.93 %); format: functional
Mus musculus [21] = test: Anti-inflammatory activity in AOM/DSS-induced BALB/c mouse model inflammatory bowel disease assessed as reduction in distortion of glands at 10 mg/kg, ip pretreated with AOM for 7 days further replaced with DSS for 7 days and repeated for 2 times followed by every 2 days compound treatment for […] starting from day 50 by H and E staining based analysis; format: functional, organism-based; conditions: time 21.0 day
HT-29 [22] = test: Induction of apoptosis in human HT-29 cells assessed as late apoptotic cells at 10 uM incubated for 24 hrs by Annexin V-FITC/PI staining based flow cytometric analysis (reference value: 1.56 %); format: functional
HCT-116 [23] = test: Induction of autophagic flux in human HCT-116 cells assessed as increase in LC3 protein expression preincubated with 3-methyladenine for 1 hr followed by compound addition and measured after 24 hrs by Western blot analysis; format: functional, cell-based
HCT-116 [24] = test: Induction of apoptosis in human HCT-116 cells assessed as early apoptotic cells at 5 uM incubated for 24 hrs by Annexin V-FITC/PI staining based flow cytometric analysis (reference value: 7.22 %); format: functional
Mus musculus [25] = test: In vivo inhibition of NFkappaB activation in athymic BALB/c mouse xenografted with human HCT-116 cells assessed as reduction in E-selectin gene expression in tumor at 15 mg/kg, ip administered every other day and measured after 14 days by qRT-PCR analysis; format: functional, organism-based; conditions: time 14.0 day
[26] = Toxicity in athymic nude BALB/c mouse xenografted with human HCT-116 cells assessed as reduction in body weight at 5 to 15 mg/kg, ip administered every other day and measured every other day for 16 days; format: organism-based; conditions: in vivo, 384 h, dose 5-15 mg/kg, time 16 day
HT-29 [27] = test: Antitumor activity against human HT-29 cells xenografted in athymic nude BALB/c mouse assessed as reduction in tumor volume at 5 to 15 mg/kg, ip administered every other day and measured every other day for 16 days; format: functional, organism-based; conditions: dose 5-15 mg/kg, time 16.0 day
Cell membrane = test: Disruption of mitochondrial membrane potential in human HCT-116 cells at upto 10 uM measured after 24 hrs by JC-1 staining based fluorescence microscopy; format: subcellular
HCT-15 = test: Cytotoxicity against human HCT-15 cells assessed as decrease in cell viability incubated for 48 hrs by SRB assay; format: functional, cell-based; conditions: HCT-15, 48 h
Mus musculus [28] = test: Anti-inflammatory activity in AOM/DSS-induced BALB/c mouse model inflammatory bowel disease assessed as reduction in body weight at 5 to 10 mg/kg, ip pretreated with AOM for 7 days further replaced with DSS for 7 days and repeated for 2 times followed by every 2 days compound treatment for […] starting from day 50 […]; format: functional, organism-based; conditions: dose 5-10 mg/kg, time 21.0 day

C[C@@H]1CC[C@H]2[C@H](C(=O)c3c(O)c([C@@]4(O)CC[C@@H](O)[C@H]5O[C@H]54)cn(O)c3=O)[C@H](C)C=C[C@@H]2C1
viability at 5 µM (HCT-116 [1]): 15.6%
Activity (HT-29 [2]): Dose-Dependent Effect
Activity (HT-29 [3]): Dose-Dependent Effect
IC50 (HCT-116 [4]): 930 nM
Activity (HCT-116 [5]): 28.1%
Activity [6]: Non-Toxic
inhibition (Mus musculus [7]): Active
Activity (HT-29 [8]): Active
Activity (Mus musculus [9]): Active
Activity (HCT-116 [10]): Active
Activity (HT-29 [11]): 72.58%
Activity (HT-29 [12]): Active
Activity (HCT-116 [13]): 47%
inhibition (HCT-116 [14]): Active
Activity (HCT-116 [15]): 15.66%
Activity [16]: Non-Toxic
Activity (HCT-116 [17]): Active
viability at 0.5 µM (HT-29 [18]): 55.5%
Activity [19]: Non-Toxic
Activity (HT-29 [20]): 7.08%
Activity (Mus musculus [21]): Active
Activity (HT-29 [22]): 16.8%
Activity (HCT-116 [23]): Active
Activity (HCT-116 [24]): 16.2%
inhibition (Mus musculus [25]): Active
Activity [26]: Non-Toxic
Activity (HT-29 [27]): Active
Activity (Cell membrane): Active
IC50 (HCT-15): 570 nM
Activity (Mus musculus [28]): Active
